These are literature values, as cited in patent US20040089561A1, “Method and package for storing a pressurized container containing a drug” (priority 1999, published 2004).

Molecules are shown by their SMILES.

For the data set the following is noted: water in the propellant.
Consider `FC(F)(Cl)Cl` [CFC 12], for which the maximum water solubility result is reported as “about 130 ppm”.

For `FC(F)(Cl)C(F)(F)Cl` [CFC 114], the maximum water solubility result is listed as “about 130 ppm”.

On to `FCC(F)(F)F` [HFC 134a], for which the maximum water solubility entry is reported as “about 2200 ppm”.
